Reference: ChEMBL document CHEMBL1275399, “Novel potent orally active multitargeted receptor tyrosine kinase inhibitors: synthesis, structure-activity relationships, and antitumor activities of 2-indolinone derivatives” (J Med Chem, 2010)

Tests used:
[1] = molecular target: Mast/stem cell growth factor receptor Kit (Homo sapiens, UniProt P10721); assay: Inhibition of c-Kit after 30 mins by ELISA
[2] = molecular target: Platelet-derived growth factor receptor beta (Homo sapiens, UniProt P09619); assay: Inhibition of human PDGFRbeta after 30 mins by ELISA
[3] = Volume of distribution in Sprague-Dawley rat at 10 mg/kg, po and 10 mg/kg iv; format: ADME, organism-based; conditions: in vivo
[4] = Clearance in Sprague-Dawley rat at 10 mg/kg, po and 10 mg/kg iv; format: ADME, organism-based; conditions: in vivo
[5] = Cmax in Sprague-Dawley rat at 10 mg/kg, po and 10 mg/kg iv; format: ADME, organism-based; conditions: in vivo
Rattus norvegicus = assay: AUC in Sprague-Dawley rat at 40 mg/kg, po; format: ADME, organism-based, Plasma; design: dose 40 mg/kg, route oral; conditions: in vivo
[6] = Oral bioavailability in Sprague-Dawley rat at 10 mg/kg; format: ADME, organism-based; conditions: in vivo
[7] = Half life in Sprague-Dawley rat at 10 mg/kg, po and 10 mg/kg iv; format: ADME, organism-based; conditions: in vivo
HT-29 [8] = assay: Antitumor activity against human HT-29 cells xenografted in po dosed BALB/cA nude mouse assessed as inhibition of tumor growth administered 11 days after tumor implantation qd for 14 days; format: functional, organism-based
HT-29 [9] = assay: animal or person; conditions: Mus musculus, HT-29, po, read-out: TGI
Description: Antitumor activity against human HT-29 cells xenografted in BALB/cA nude mouse assessed as inhibition of tumor growth at 10 mg/kg, po administered 11 days after tumor implantation qd for 14 days

Mus musculus [10] = assay: Toxicity in human HT-29 cells xenografted BALB/cA nude mouse assessed as mortality at up to 30 mg/kg, po administered 11 days after tumor implantation qd for 14 days; format: organism-based; design: dose 30 mg/kg, route oral; conditions: in vivo
Mus musculus [11] = assay: Toxicity in human HT-29 cells xenografted BALB/cA nude mouse assessed as weight loss at up to 30 mg/kg, po administered 11 days after tumor implantation qd for 14 days; format: organism-based; design: dose 30 mg/kg, route oral; conditions: in vivo
HT-29 [12] = assay: animal or person; conditions: Mus musculus, HT-29, po, read-out: TGI; remark: listed apart in the source
Description: Antitumor activity against human HT-29 cells xenografted in BALB/cA nude mouse assessed as inhibition of tumor growth at 30 mg/kg, po administered 11 days after tumor implantation qd for 14 days

Platelet-derived growth factor receptor beta, sequence (P09619 whole entry): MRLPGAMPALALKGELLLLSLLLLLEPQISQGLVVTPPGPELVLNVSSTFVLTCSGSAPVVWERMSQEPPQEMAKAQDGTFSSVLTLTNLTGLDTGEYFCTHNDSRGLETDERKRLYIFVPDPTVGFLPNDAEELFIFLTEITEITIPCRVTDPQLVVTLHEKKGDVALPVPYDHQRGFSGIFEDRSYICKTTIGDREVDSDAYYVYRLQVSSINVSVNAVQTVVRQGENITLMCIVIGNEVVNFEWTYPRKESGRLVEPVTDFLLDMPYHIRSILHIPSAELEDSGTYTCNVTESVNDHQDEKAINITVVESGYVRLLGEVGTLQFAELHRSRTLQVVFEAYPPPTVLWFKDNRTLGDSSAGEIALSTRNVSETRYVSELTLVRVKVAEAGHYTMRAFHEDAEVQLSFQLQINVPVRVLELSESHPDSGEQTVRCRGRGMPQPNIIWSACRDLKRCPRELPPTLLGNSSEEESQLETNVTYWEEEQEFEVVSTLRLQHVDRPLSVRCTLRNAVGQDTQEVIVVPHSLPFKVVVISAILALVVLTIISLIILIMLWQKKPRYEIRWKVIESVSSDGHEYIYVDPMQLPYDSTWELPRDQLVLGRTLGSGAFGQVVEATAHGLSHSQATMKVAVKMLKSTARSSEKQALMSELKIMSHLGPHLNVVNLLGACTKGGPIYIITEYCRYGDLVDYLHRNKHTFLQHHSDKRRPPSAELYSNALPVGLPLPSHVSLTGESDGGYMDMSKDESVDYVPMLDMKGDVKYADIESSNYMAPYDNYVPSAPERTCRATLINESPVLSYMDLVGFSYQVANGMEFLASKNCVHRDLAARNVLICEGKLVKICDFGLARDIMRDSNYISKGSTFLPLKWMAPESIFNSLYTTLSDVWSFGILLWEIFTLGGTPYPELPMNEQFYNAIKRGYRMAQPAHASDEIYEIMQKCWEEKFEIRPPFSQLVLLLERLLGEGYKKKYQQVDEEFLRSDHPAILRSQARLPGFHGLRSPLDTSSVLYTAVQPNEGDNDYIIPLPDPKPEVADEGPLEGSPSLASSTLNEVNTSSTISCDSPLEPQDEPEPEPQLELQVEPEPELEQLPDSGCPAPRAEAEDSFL
Mast/stem cell growth factor receptor Kit, sequence (P10721 whole entry): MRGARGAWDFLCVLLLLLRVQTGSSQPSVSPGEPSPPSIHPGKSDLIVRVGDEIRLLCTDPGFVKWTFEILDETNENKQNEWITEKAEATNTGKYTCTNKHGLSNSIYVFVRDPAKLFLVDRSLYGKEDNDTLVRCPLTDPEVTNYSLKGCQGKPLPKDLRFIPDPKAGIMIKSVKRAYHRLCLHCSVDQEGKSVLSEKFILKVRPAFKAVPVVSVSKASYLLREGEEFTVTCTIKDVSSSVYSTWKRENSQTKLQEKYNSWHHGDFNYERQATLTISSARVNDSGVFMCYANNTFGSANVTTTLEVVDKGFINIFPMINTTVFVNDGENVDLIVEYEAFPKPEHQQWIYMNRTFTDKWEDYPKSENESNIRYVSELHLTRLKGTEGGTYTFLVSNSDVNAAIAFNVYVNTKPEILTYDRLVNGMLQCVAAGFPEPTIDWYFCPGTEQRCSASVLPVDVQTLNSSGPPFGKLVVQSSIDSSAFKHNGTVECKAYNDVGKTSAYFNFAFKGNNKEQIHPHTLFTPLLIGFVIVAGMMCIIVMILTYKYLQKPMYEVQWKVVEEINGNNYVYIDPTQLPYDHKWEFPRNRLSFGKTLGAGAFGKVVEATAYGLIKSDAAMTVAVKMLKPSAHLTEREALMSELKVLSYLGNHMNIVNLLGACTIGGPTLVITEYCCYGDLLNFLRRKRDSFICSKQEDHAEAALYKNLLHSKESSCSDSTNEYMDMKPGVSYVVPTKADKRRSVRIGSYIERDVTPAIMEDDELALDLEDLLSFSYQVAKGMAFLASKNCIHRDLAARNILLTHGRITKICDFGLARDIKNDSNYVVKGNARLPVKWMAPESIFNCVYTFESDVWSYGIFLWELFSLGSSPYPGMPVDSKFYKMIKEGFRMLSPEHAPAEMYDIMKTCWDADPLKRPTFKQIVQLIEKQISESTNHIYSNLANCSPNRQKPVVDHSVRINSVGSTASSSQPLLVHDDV

| IC50 [1] | IC50 [2] | Vd [3] | clearance [4] | Cmax [5] | AUC (Rattus norvegicus) | bioavailability [6] | half-life [7] | SMILES | other results |
| --- | --- | --- | --- | --- | --- | --- | --- | --- | --- |
| 3 nM | 4 nM | – | – | – | – | – | – | Cc1c(/C=C2\C(=O)Nc3ccc(F)cc32)[nH]c2c1C(=O)N(CCN1CCCC1)CC2 | – |
| 1 nM | 10 nM | – | – | – | – | – | – | Cc1c(/C=C2\C(=O)Nc3ccc(F)cc32)[nH]c2c1C(=O)N(CCN1CCOCC1)CC2 | – |
| 8 nM | 11 nM | 5.1 L/kg | 1.26 L/h/kg | 9.03 µg/mL | 49.21 ug/hr.ml | 55.2% | 3.76 h | Cc1c(/C=C2\C(=O)Nc3ccc(F)cc32)[nH]c2c1C(=O)N(C[C@H](O)CN1CCOCC1)CCC2 [HENATINIB] | Activity (HT-29 [8]): Dose-dependent effect; inhibition in vivo at 10 mg/kg (HT-29 [9]): 51.7% |
| 1 nM | 3 nM | – | – | – | – | – | – | Cc1c(/C=C2\C(=O)Nc3ccc(F)cc32)[nH]c2c1C(=O)N(CCN(C)C)CC2 | – |
| 1 nM | 8 nM | 4.13 L/kg | 1.02 L/h/kg | 6.11 µg/mL | 41.18 ug/hr.ml | 50.7% | 3.41 h | Cc1c(/C=C2\C(=O)Nc3ccc(F)cc32)[nH]c2c1C(=O)N(C[C@H](O)CN1CCOCC1)CC2 | – |
| 4 nM | 5 nM | – | – | – | – | – | – | Cc1c(/C=C2\C(=O)Nc3ccc(F)cc32)[nH]c2c1C(=O)N(CCN1CCOCC1)CCC2 | – |

Continued, compound first:

| SMILES | IC50 [1] | IC50 [2] | Vd [3] | clearance [4] | Cmax [5] | AUC (Rattus norvegicus) | bioavailability [6] | half-life [7] | other results |
| --- | --- | --- | --- | --- | --- | --- | --- | --- | --- |
| CCN(CC)CCN1CCCCc2[nH]c(/C=C3\C(=O)Nc4ccc(F)cc43)c(C)c2C1=O | 9 nM | 13 nM | – | – | – | – | – | – | – |
| CCN(CC)CCN1CCCc2[nH]c(/C=C3\C(=O)Nc4ccc(F)cc43)c(C)c2C1=O | 4 nM | 10 nM | 18.8 L/kg | 1.37 L/h/kg | 2.41 µg/mL | 27.61 ug/hr.ml | 65.8% | 9.65 h | – |
| CCN(CC)CCN1CCc2[nH]c(/C=C3\C(=O)Nc4ccc(F)cc43)c(C)c2C1=O [FAMITINIB] | 2 nM | 4 nM | 97.4 L/kg | 3.87 L/h/kg | 0.45 µg/mL | 10.96 ug/hr.ml | 36.7% | 18 h | Activity (HT-29 [8]): Dose-dependent effect; inhibition in vivo at 10 mg/kg (HT-29 [9]): 49.8%; Activity (Mus musculus [10]): Toxic; Activity (Mus musculus [11]): Toxic |
| CCN(CC)CCN1CCc2[nH]c(/C=C3\C(=O)Nc4ccc(Br)cc43)c(C)c2C1=O | 4 nM | 3 nM | – | – | – | – | – | – | – |
| CCN(CC)CCNC(=O)c1c(C)[nH]c(/C=C2\C(=O)Nc3ccc(F)cc32)c1C [SUNITINIB] | – | – | – | – | – | – | – | – | Activity (HT-29 [8]): Dose-dependent effect; inhibition in vivo at 30 mg/kg (HT-29 [12]): 53.8% |
| CCN(CC)CCN1CCc2[nH]c(/C=C3\C(=O)Nc4ccc(Cl)cc43)c(C)c2C1=O | 4 nM | 2 nM | – | – | – | – | – | – | – |
